Source: patent US20260285850A1, “SUBSTITUTED OXAZOLIDINONES AND IMIDAZOLINONES AS HERBICIDES” (FMC CORPORATION, priority 2023, published 2026)

What was measured:
Assay type in all cases: in vivo
[1] = system: ragweed (common ragweed, Ambrosia artemisiifolia); assay: Test A postemergence application, visual injury rating 0-100
In short: (§1)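 Plants were grown in a loam soil-sand blend and treated with test chemical in a non-phytotoxic solvent mixture containing surfactant, either sprayed on soil preemergence or applied postemergence to 2-10 cm plants. After 10 days in a greenhouse, injury was scored visually against untreated controls, 0 meaning no effect and 100 complete control.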

[2] = system: horseweed (Erigeron canadensis); assay: as above
In short: as §1

[3] = system: green foxtail (Setaria viridis); assay: as above
In short: as §1

[4] = system: wheat (Triticum aestivum); assay: as above
In short: as §1

[5] = system: kochia (Bassia scoparia); assay: as above
In short: as §1

[6] = system: barnyardgrass (Echinochloa crus-galli); assay: as above
In short: as §1

[7] = system: corn (Zea mays); assay: as above
In short: as §1

[8] = system: palmer (palmer amaranth, palmer pigweed, Amaranthus palmeri); assay: as above
In short: as §1

[9] = system: blackgrass (Alopecurus myosuroides); assay: as above
In short: as §1

[10] = system: galium (catchweed bedstraw, Galium aparine); assay: as above; details: Postemergence, 16 g ai/ha, greenhouse 10 days; 0 no effect, 100 complete control
In short: as §1

[11] = system: soybean (Glycine max); assay: as above
In short: as §1

[12] = system: ryegrass, Italian (italian ryegrass, Lolium multiflorum); assay: as above
In short: as §1

[13] = system: oat, wild (wild oat, Avena fatua); assay: as above
In short: as §1

[14] = system: barnyardgrass (Echinochloa crusgalli); assay: Test B flooded paddy test, visual plant response rating 0-100; details: 250 g ai/ha, Flood, applied to paddy water, evaluated after 13 days
In short: (§2)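 2-leaf plants; flood 3 cm over soil; compound dosed into paddy water; depth kept constant; greenhouse 13 d; visual scoring vs controls. Dash = no result.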

[15] = system: sedge, umbrella (small-flower umbrella sedge, Cyperus difformis); assay: as above; details: 250 g ai/ha, Flood, applied to paddy water, evaluated after 13 days
In short: as §2

[16] = system: ducksalad (Heteranthera limosa); assay: as above; details: 250 g ai/ha, Flood, applied to paddy water, evaluated after 13 days
In short: as §2

[17] = system: rice (Oryza sativa); assay: as above; details: 250 g ai/ha, Flood, applied to paddy water, evaluated after 13 days
In short: as §2

[18] = system: ragweed (common ragweed, Ambrosia artemisiifolia); assay: Test A preemergence soil spray, visual injury rating 0-100; details: 10 days
In short: as §1

[19] = system: green foxtail (Setaria viridis); assay: as above; details: 10 days
In short: as §1

[20] = system: wheat (Triticum aestivum); assay: as above; details: 10 days
In short: as §1

[21] = system: kochia (Bassia scoparia); assay: as above; details: 10 days
In short: as §1

[22] = system: barnyardgrass (Echinochloa crus-galli); assay: as above; details: 10 days
In short: as §1

[23] = system: corn (Zea mays); assay: as above; details: 10 days
In short: as §1

[24] = system: palmer (palmer amaranth, palmer pigweed, Amaranthus palmeri); assay: as above; details: 10 days
In short: as §1

[25] = system: blackgrass (Alopecurus myosuroides); assay: as above; details: 10 days
In short: as §1

[26] = system: soybean (Glycine max); assay: as above; details: 10 days
In short: as §1

[27] = system: ryegrass, Italian (italian ryegrass, Lolium multiflorum); assay: as above; details: 10 days
In short: as §1

[28] = system: oat, wild (wild oat, Avena fatua); assay: as above; details: 10 days
In short: as §1

[29] = 62 g ai/ha, postemergence, 10 days, 0 = no effect, 100 = complete control
[30] = Postemergence, 16 g ai/ha, greenhouse 10 days, 0 no effect, 100 complete control
[31] = 62 g ai/ha, 0 = no effect, 100 = complete control

With `CC1(C(=O)NC2CC=C(C(=O)OCC(F)F)C2)CN(c2cc(Cl)cc(Cl)c2)C(=O)O1` (stereo not drawn) [Compound 153] the “Ragweed plant response rating (0-100)” value [1, 29] was 0, the “Ragweed plant response rating (0 to 100 scale)” value [1, 30] was 0 and the “Horseweed plant response rating (0-100)” value [2, 29] was 0. For the same molecule, the “Horseweed plant response rating (0 to 100 scale)” value [2, 30] was 20, the “Foxtail, Green plant response rating (0-100)” value [3, 29] was 0 and the “Foxtail, Green plant response rating (0 to 100 scale)” value [3, 30] was 0. The “Wheat plant response rating (0-100)” value [4, 29] was 0, the “Wheat plant response rating (0 to 100 scale)” value [4, 30] was 0 and the “Kochia plant response rating (0-100)” value [5, 29] was 0. The “Kochia plant response rating (0 to 100 scale)” value [5, 30] was 0, the “Barnyardgrass plant response rating (0-100)” value [6, 29] was 0 and the “Barnyardgrass plant response rating (0 to 100 scale)” value [6, 30] was 0. For the same molecule, the “Corn plant response rating (0-100)” value [7, 29] was 0, the “Corn plant response rating (0 to 100 scale)” value [7, 30] was 0 and the “Pigweed, Palmer plant response rating (0-100)” value [8, 29] was 0. The “Pigweed, Palmer plant response rating (0 to 100 scale)” value [8, 30] was 0, the “Blackgrass plant response rating (0-100)” value [9, 29] was 90 and the “Blackgrass plant response rating (0 to 100 scale)” value [9, 30] was 80. The “Galium plant response rating (0 to 100 scale)” value [10] was 0, the “Soybean plant response rating (0-100)” value [11, 29] was 0 and the “Soybean plant response rating (0 to 100 scale)” value [11, 30] was 0. The “Ryegrass, Italian plant response rating (0-100)” value [12, 29] was 0, the “Ryegrass, Italian plant response rating (0 to 100 scale)” value [12, 30] was 0 and the “Oat, Wild plant response rating (0-100)” value [13, 29] was 0. The “Oat, Wild plant response rating (0 to 100 scale)” value [13, 30] was 0, the “Plant response rating, Barnyardgrass (0 to 100 scale, 0 is no effect and 100 is complete control)” value [14] was 0 and the “Plant response rating, Sedge, Umbrella (0 to 100 scale, 0 is no effect and 100 is complete control)” value [15] was 0. The “Plant response rating, Ducksalad (0 to 100 scale, 0 is no effect and 100 is complete control)” value [16] was 0, the “Plant response rating, Rice (0 to 100 scale, 0 is no effect and 100 is complete control)” value [17] was 0 and the “Ragweed plant response rating” value ([18]; 16 g ai/ha, 0 to 100 scale) was 0. For the same molecule, the “Ragweed plant response rating (0-100)” value [18, 31] was 0, the “Foxtail, Green plant response rating” value ([19]; 16 g ai/ha, 0 to 100 scale) was 0 and the “Foxtail, Green plant response rating (0-100)” value [19, 31] was 0. The “Wheat plant response rating” value ([20]; 16 g ai/ha, 0 to 100 scale) was 0, the “Wheat plant response rating (0-100)” value [20, 31] was 0 and the “Kochia plant response rating” value ([21]; 16 g ai/ha, 0 to 100 scale) was 0. For the same molecule, the “Kochia plant response rating (0-100)” value [21, 31] was 0, the “Barnyardgrass plant response rating” value ([22]; 16 g ai/ha, 0 to 100 scale) was 0 and the “Barnyardgrass plant response rating (0-100)” value [22, 31] was 20. The “Corn plant response rating” value ([23]; 16 g ai/ha, 0 to 100 scale) was 0, the “Corn plant response rating (0-100)” value [23, 31] was 0 and the “Pigweed, Palmer plant response rating” value ([24]; 16 g ai/ha, 0 to 100 scale) was 0. The “Pigweed, Palmer plant response rating (0-100)” value [24, 31] was 0, the “Blackgrass plant response rating” value ([25]; 16 g ai/ha, 0 to 100 scale) was 0 and the “Blackgrass plant response rating (0-100)” value [25, 31] was 0. For the same molecule, the “Soybean plant response rating” value ([26]; 16 g ai/ha, 0 to 100 scale) was 0, the “Soybean plant response rating (0-100)” value [26, 31] was 10 and the “Ryegrass, Italian plant response rating” value ([27]; 16 g ai/ha, 0 to 100 scale) was 0. The “Ryegrass, Italian plant response rating (0-100)” value [27, 31] was 0, the “Oat, Wild plant response rating” value ([28]; 16 g ai/ha, 0 to 100 scale) was 0 and the “Oat, Wild plant response rating (0-100)” value [28, 31] was 0.
